Results from patent US8063055B2, “Substituted pyridone compounds and methods of use” (Amgen Inc., priority 2007, dated 2011).
Like-named read-outs stand apart in the source and are kept apart here.

Key:
[1] = tested on: SCF-stimulated UT-7 cells; conditions: Homo sapiens
Text: SCF and GM-CSF Stimulated UT7 Proliferation/Survival Assay:
The purpose of this assay is to test the general anti-proliferative/cytotoxic effect of small molecule compounds on SCF or GM-CSF-stimulated UT-7 cells. Preventing SCF stimulated proliferation/survival is consistent with an on-mechanism effect whereas inhibition of GM-CSF driven proliferation/survival is indicative of off-target effects. UT-7 is a factor dependent human megakaryoblastic leukemia cell line that can be grown in either IL-3, GM-CSF, EPO or SCF (these cells have been confirmed to carry wild type c-kit receptor). Cells are maintained in growth media (IMDM, 10% HI-FBS, 1×PGS, 1 ng/mL GM-CSF). […] Small molecule compounds are first diluted in 100% DMSO, then diluted 1:4 in RT assay media. […] The treated cells are incubated in a 37° C. humidified incubator with 5% CO2 for 3 days. The amount of ATP is then measured as a surrogate marker for cell viability. […] The amount of SCF or GM-CSF stimulated viable cells in the presence of compound compared with in the presence of vehicle alone (HI control) is calculated using the formula: % control (POC)=(cpd−average LO)/(average HI−average LO)*100. Data (consisting of POC and inhibitor concentration in μM) is fitted to a 4-parameter equation (y=A+((B−A)/(1+((x/C)^D))), where A is the minimum y (POC) value, B is the maximum y (POC), C is the x (cpd concentration) at the point of inflection and D is the slope factor) using a Levenburg-Marquardt non-linear regression algorithm.

c-kit kinase enzyme = target: T1, c-kit kinase enzyme (Homo sapiens, UniProt P10721); assay: C-kit Homogeneous Time Resolved Fluorescent (HTRF) kinase assay; format: biochemical
T1 construct: (catalytic domain, N-terminal GST tagged, unphosphorylated)
T1 sequence (P10721 589-937 limits assumed): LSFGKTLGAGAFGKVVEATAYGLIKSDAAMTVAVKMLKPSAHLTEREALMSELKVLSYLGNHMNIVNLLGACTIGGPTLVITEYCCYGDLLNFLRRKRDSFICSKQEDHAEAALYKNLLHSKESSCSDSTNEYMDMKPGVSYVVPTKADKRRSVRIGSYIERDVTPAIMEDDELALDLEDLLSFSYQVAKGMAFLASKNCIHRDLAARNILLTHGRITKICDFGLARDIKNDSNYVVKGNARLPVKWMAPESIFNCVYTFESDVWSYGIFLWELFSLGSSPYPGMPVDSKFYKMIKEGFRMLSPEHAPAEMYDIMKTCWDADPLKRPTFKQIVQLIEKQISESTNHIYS

[2] = UT7, 72 h, read-out: UT7 Proliferation cell assay data
[3] = HTRF Fret enzyme assay data, c-kit catalytic domain, biotinylated Her-2 peptide substrate, ATP
[4] = c-kit catalytic domain, biotinylated Her-2 peptide substrate, ATP, read-out: HTRF Fret enzyme assay data

| SMILES | IC50 [1, 2] | IC50 (c-kit kinase enzyme; [3]) | other results |
| --- | --- | --- | --- |
| Cc1ccn(-c2ccc(-n3cccc3)cc2)c(=O)c1-c1ccc2nc(N)ncc2c1 [Example 5, 1-(4-(1H-pyrrol-1-yl)phenyl)-3-(2-aminoquinazolin-6-yl)-4-methylpyridin-2(1H)-one] | 4.83 nM | 2.25 nM | IC50 ([1]; UT7, read-out: average IC50 value in the SCF stimulated UT7 proliferation and survival assay): ≤ 1000 nM |
| Cc1ccc(-n2ccc(C)c(-c3ccc4nc(N)ncc4c3)c2=O)cc1F [Example 6, 3-(2-aminoquinazolin-6-yl)-1-(3-fluoro-4-methylphenyl)-4-methylpyridin-2(1H)-one] | 12.1 nM | – | IC50 (c-kit kinase enzyme; [4]): 40.1 nM |
| Cc1ccn(-c2ccc(-c3ncco3)cc2)c(=O)c1-c1ccc2nc(N)ncc2c1 [Example 7, 3-(2-aminoquinazolin-6-yl)-4-methyl-1-(4-(oxazol-2-yl)phenyl)pyridin-2(1H)-one] | 15.5 nM | 21.6 nM | – |
| Cc1cc(C)cc(-n2ccc(C)c(-c3ccc4nc(N)ncc4c3)c2=O)c1 [Example 8, 3-(2-aminoquinazolin-6-yl)-1-(3,5-dimethylphenyl)-4-methylpyridin-2(1H)-one] | 50.1 nM | 16.1 nM | – |
| Cc1ccn(-c2cccc(C#N)c2)c(=O)c1-c1ccc2nc(N)ncc2c1 [Example 9, 3-(3-(2-aminoquinazolin-6-yl)-4-methyl-2-oxopyridin-1(2H)-yl)benzonitrile] | 107 nM | 88.8 nM | – |
| Cc1ccn(-c2ccc3[nH]c(C(F)(F)F)nc3c2)c(=O)c1-c1ccc2nc(N)ncc2c1 [Example 10, 3-(2-aminoquinazolin-6-yl)-4-methyl-1-(2-(trifluoromethyl)-1H-benzo[d]imidazol-5-yl)pyridin-2(1H)-one] | 189 nM | 34.8 nM | – |
| COc1cc(-n2ccc(C)c(-c3ccc4nc(N)ncc4c3)c2=O)cc(C(F)(F)F)c1 [Example 11, 3-(2-aminoquinazolin-6-yl)-1-(3-methoxy-5-(trifluoromethyl)phenyl)-4-methylpyridin-2(1H)-one] | 58.8 nM | 11.1 nM | – |
| Cc1ccn(-c2ccc(C(C)(C)C)cc2)c(=O)c1-c1ccc2nc(N)ncc2c1 [Example 12, 3-(2-amino-6-quinazolinyl)-1-(4-(1,1-dimethylethyl)phenyl)-4-methyl-2(1H)-pyridinone] | 16.5 nM | 2.06 nM | – |
| Cc1ccc(-n2ccc(C)c(-c3ccc4nc(N)ncc4c3)c2=O)cc1C [Example 13, 3-(2-amino-6-quinazolinyl)-1-(3,4-dimethylphenyl)-4-methyl-2(1H)-pyridinone] | 5.4 nM | 3.67 nM | – |
| Cc1ccn(-c2cccc(OC(F)(F)F)c2)c(=O)c1-c1ccc2nc(N)ncc2c1 [Example 14, 3-(2-amino-6-quinazolinyl)-4-methyl-1-(3-((trifluoromethyl)oxy)phenyl)-2(1H)-pyridinone] | 16.2 nM | 4.04 nM | – |
| Cc1ccn(-c2ccc3c(c2)NCC3(C)C)c(=O)c1-c1ccc2nc(N)ncc2c1 [Example 15, 3-(2-amino-6-quinazolinyl)-1-(3,3-dimethyl-2,3-dihydro-1H-indol-6-yl)-4-methyl-2(1H)-pyridinone] | 19.4 nM | 4.7 nM | – |
| Cc1ccn(-c2ccc3ncccc3c2)c(=O)c1-c1ccc2nc(N)ncc2c1 [Example 16, 3-(2-amino-6-quinazolinyl)-4-methyl-1-(6-quinolinyl)-2(1H)-pyridinone] | 56.8 nM | 5.29 nM | – |
| Cc1ccn(-c2ccc3c(c2)CCO3)c(=O)c1-c1ccc2nc(N)ncc2c1 [Example 17, 3-(2-amino-6-quinazolinyl)-1-(2,3-dihydro-1-benzofuran-5-yl)-4-methyl-2(1H)-pyridinone] | 15.1 nM | 7.58 nM | – |
| Cc1ccn(-c2ccc3[nH]ccc3c2)c(=O)c1-c1ccc2nc(N)ncc2c1 [Example 18, 3-(2-amino-6-quinazolinyl)-4-methyl-1-(1H-indol-5-yl)-2(1H)-pyridinone] | 28.8 nM | 8.65 nM | – |
| CC(=O)N1CC(C)(C)c2ccc(-n3ccc(C)c(-c4ccc5nc(N)ncc5c4)c3=O)cc21 [Example 19, 1-(1-acetyl-3,3-dimethyl-2,3-dihydro-1H-indol-6-yl)-3-(2-amino-6-quinazolinyl)-4-methyl-2(1H)-pyridinone] | 226 nM | 9.75 nM | – |
| Cc1ccn(-c2cccc(C(F)(F)F)c2)c(=O)c1-c1ccc2nc(N)ncc2c1 [Example 20, 3-(2-amino-6-quinazolinyl)-4-methyl-1-(3-(trifluoromethyl)phenyl)-2(1H)-pyridinone] | 27.9 nM | – | – |
| COc1cccc(-n2ccc(C)c(-c3ccc4nc(N)ncc4c3)c2=O)c1 [Example 22, 3-(2-amino-6-quinazolinyl)-4-methyl-1-(3-(methyloxy)phenyl)-2(1H)-pyridinone] | 27.7 nM | – | IC50 (c-kit kinase enzyme; [4]): 65.3 nM |
| Cc1ccn(Cc2ccccc2)c(=O)c1-c1ccc2nc(N)ncc2c1 [Example 24, 3-(2-aminoquinazolin-6-yl)-1-benzyl-4-methylpyridin-2(1H)-one] | 13 nM | 6 nM | – |
| Cc1ccn(CCC(C)C)c(=O)c1-c1ccc2nc(N)ncc2c1 [Example 25, 3-(2-aminoquinazolin-6-yl)-1-isopentyl-4-methylpyridin-2(1H)-one] | 84 nM | 18 nM | – |

| SMILES | IC50 [1, 2] | IC50 (c-kit kinase enzyme; [3]) | other results |
| --- | --- | --- | --- |
| Cc1ccn(-c2ccc3c(ccn3-c3ccc4[nH]ccc4c3)c2)c(=O)c1-c1ccc2nc(N)ncc2c1 [Example 26, 3-(2-amino-6-quinazolinyl)-1-(1′H-1,5′-biindol-5-yl)-4-methyl-2(1H)-pyridinone] | 11 nM | 2 nM | – |
| Cc1ccn(-c2ccc(C(C)C)cc2)c(=O)c1-c1ccc2nc(N)ncc2c1 [Example 27, 3-(2-aminoquinazolin-6-yl)-1-(4-isopropylphenyl)-4-methylpyridin-2(1H)-one] | 5 nM | 2 nM | – |
| CC(=O)c1ccc(-n2ccc(C)c(-c3ccc4nc(N)ncc4c3)c2=O)cc1 [Example 28, 1-(4-acetylphenyl)-3-(2-aminoquinazolin-6-yl)-4-methylpyridin-2(1H)-one] | – | – | IC50 (c-kit kinase enzyme; [4]): 20 nM |
| CCOC(=O)c1ccc(-n2ccc(C)c(-c3ccc4nc(N)ncc4c3)c2=O)cc1 [Example 29, ethyl 4-(3-(2-aminoquinazolin-6-yl)-4-methyl-2-oxopyridin-1(2H)-yl)benzoate] | 66 nM | – | IC50 (c-kit kinase enzyme; [4]): 17 nM |
| Cc1ccn(-c2ccc(C(F)(F)F)cc2)c(=O)c1-c1ccc2nc(N)ncc2c1 [Example 30, 3-(2-aminoquinazolin-6-yl)-4-methyl-1-(4-(trifluoromethyl)phenyl)pyridin-2(1H)-one] | 18 nM | 8 nM | – |
| COc1ccc(-n2ccc(C)c(-c3ccc4nc(N)ncc4c3)c2=O)cc1 [Example 31, 3-(2-aminoquinazolin-6-yl)-1-(4-methoxyphenyl)-4-methylpyridin-2(1H)-one] | – | – | IC50 (c-kit kinase enzyme; [4]): 17 nM |
| Cc1ccn(-c2ccc(Cl)cc2)c(=O)c1-c1ccc2nc(N)ncc2c1 [Example 32, 3-(2-aminoquinazolin-6-yl)-1-(4-chlorophenyl)-4-methylpyridin-2(1H)-one] | 14 nM | – | IC50 (c-kit kinase enzyme; [4]): 20 nM |
| Cc1ccn(-c2ccc(N3CCN(C(=O)OC(C)(C)C)CC3)cc2)c(=O)c1-c1ccc2nc(N)ncc2c1 [Example 36, tert-butyl 4-(4-(3-(2-aminoquinazolin-6-yl)-4-methyl-2-oxopyridin-1(2H)-yl)phenyl)piperazine-1-carboxylate] | – | 1370 nM | – |
| CCOC(=O)CNc1ccc(-n2ccc(C)c(-c3ccc4nc(N)ncc4c3)c2=O)cc1 [Example 37, ethyl 2-(4-(3-(2-aminoquinazolin-6-yl)-4-methyl-2-oxopyridin-1(2H)-yl)phenylamino)acetate] | – | 181 nM | – |
| Cc1ccn(-c2ccc(Cl)c(F)c2)c(=O)c1-c1ccc2nc(N)ncc2c1 [Example 44, 3-(2-aminoquinazolin-6-yl)-1-(4-chloro-3-fluorophenyl)-4-methylpyridin-2(1H)-one] | – | – | IC50 (c-kit kinase enzyme; [4]): 59.7 nM |
| Cc1ccn(CC2CCCCC2)c(=O)c1-c1ccc2nc(N)ncc2c1 [Example 47, 3-(2-aminoquinazolin-6-yl)-1-(cyclohexylmethyl)-4-methylpyridin-2(1H)-one] | – | 132 nM | – |
| Cc1ccn(CC2CCC2)c(=O)c1-c1ccc2nc(N)ncc2c1 [Example 48, 3-(2-aminoquinazolin-6-yl)-1-(cyclobutylmethyl)-4-methylpyridin-2(1H)-one] | – | 1410 nM | – |
| Cc1ccn(CC(C)C)c(=O)c1-c1ccc2nc(N)ncc2c1 [Example 49, 3-(2-aminoquinazolin-6-yl)-1-isobutyl-4-methylpyridin-2(1H)-one] | – | 2250 nM | – |
| CCCn1ccc(C)c(-c2ccc3nc(N)ncc3c2)c1=O [Example 50, 3-(2-aminoquinazolin-6-yl)-4-methyl-1-propylpyridin-2(1H)-one] | – | 315 nM | IC50 (c-kit kinase enzyme; average IC50 value, inhibition of the c-kit kinase enzyme in a human HTRF assay, 1.0 uM or less): ≤ 1000 nM |
| COC(=O)Cn1ccc(C)c(-c2ccc3nc(N)ncc3c2)c1=O [Example 51, methyl 2-(3-(2-aminoquinazolin-6-yl)-4-methyl-2-oxopyridin-1(2H)-yl)acetate] | – | 1190 nM | – |
| CCCCn1ccc(C)c(-c2ccc3nc(N)ncc3c2)c1=O [Example 53, 3-(2-aminoquinazolin-6-yl)-1-butyl-4-methylpyridin-2(1H)-one] | – | 118 nM | – |
| Cc1ccn(CCN(C)C)c(=O)c1-c1ccc2nc(N)ncc2c1 [Example 55, 3-(2-aminoquinazolin-6-yl)-1-(2-(dimethylamino)ethyl)-4-methylpyridin-2(1H)-one] | – | 1580 nM | – |
| COCCn1ccc(C)c(-c2ccc3nc(N)ncc3c2)c1=O [Example 56, 3-(2-aminoquinazolin-6-yl)-1-(2-methoxyethyl)-4-methylpyridin-2(1H)-one] | – | 2230 nM | – |
| Cc1ccn(CCn2cccn2)c(=O)c1-c1ccc2nc(N)ncc2c1 [Example 60, 1-(2-(1H-pyrazol-1-yl)ethyl)-3-(2-aminoquinazolin-6-yl)-4-methylpyridin-2(1H)-one] | – | 176 nM | – |
